According to patent US20250270213A1, “PI3Ka INHIBITORS” (Synnovation Therapeutics, Inc., priority 2022, published 2025):

These compounds were tested on T47D (PIK3CA H1047R) cells (assay: pS473 AKT assay with 2.5% FBS, T47D cells). Conditions: Homo sapiens, pSer473 AKT, DMEM with 2.5% FBS, 2 h treatment, read-out: T47D_IC50.
Format: cell-based
Method: Example B. pS473 AKT Assay Protocol with 2.5% FBS
T47D (PIK3CA H1047R) cells were cultured using 10-cm petri dishes with recommended medium plus 10% fetal bovine serum. One day before the assay, cells were seeded in 96-well plates. After overnight incubation, the medium was changed to DMEM with 2.5% fetal bovine serum (FBS) and the cells were treated with different concentrations of the compounds for 2 h. Cells were then fixed using 4% paraformaldehyde at room temperature for 20 min. Aspirate 4% paraformaldehyde, and wash cells using 1× regular phosphate buffered saline 3 times, 5 min each. Aspirate any residual phosphate buffered saline and block cells using 10% goat serum containing 1% bovine serum albumin and 0.3% Triton X-100 at room temperature for 1 h. Without any additional washing, primary antibodies (rabbit anti-pSer473 AKT) were diluted using blocking buffer and added at a final volume of 50 microliter per well. Keep assay plates with primary antibodies overnight at 4° C. Wash cells using 1× regular phosphate buffered saline 3 times, 5 min each. After the final wash, incubate cells with horseradish peroxidase-conjugated secondary antibodies (goat Anti-rabbit IgG) diluted using the same blocking buffer at room temperature for 1 h. Wash cells thoroughly using 1× regular phosphate buffered saline 3 times, 5 min each. Aspirate any residual phosphate buffered saline. Add Super-Signal ELISA Pico Chemiluminescent Substrate at a final volume of 100 microliter per well. Read plates on i3x Multi-Mode Microplate Reader and calculate IC50 values using GraphPad Prism software.

Structure (SMILES) | IC50
CCn1ncc2c3c(C(CO)Nc4ccc(Cl)nc4-c4cnn(C)c4)cc(C)cc3c(=O)n(C)c21 (centres unmarked) [Compound 77, 9-(1-((6-Chloro-2-(1-methyl-1H-pyrazol-4-yl)pyridin-3-yl)amino)-2-hydroxyethyl)-3-ethyl-4,7-dimethyl-3,4-dihydro-5H-pyrazolo[3,4-c]isoquinolin-5-one] | < 1000 nM
CCn1ncc2c3c(C(CO)Nc4ccc(Cl)nc4-c4cnn(C)c4C)cc(C)cc3c(=O)n(C)c21 (centres unmarked) [Compound 78, 9-(1-((6-Chloro-2-(1,5-dimethyl-1H-pyrazol-4-yl)pyridin-3-yl)amino)-2-hydroxyethyl)-3-ethyl-4,7-dimethyl-3,4-dihydro-5H-pyrazolo[3,4-c]isoquinolin-5-one] | < 1000 nM
CCn1ncc2c3c(C(C)Nc4ccc(Cl)nc4-c4cnn(C5CCN(C)CC5)c4)cc(C)cc3c(=O)n(C)c21 (centres unmarked) [Compound 79, 9-(1-((6-Chloro-2-(1-(1-methylpiperidin-4-yl)-1H-pyrazol-4-yl)pyridin-3-yl)amino)ethyl)-3-ethyl-4,7-dimethyl-3,4-dihydro-5H-pyrazolo[3,4-c]isoquinolin-5-one] | < 1000 nM
CCn1ncc2c3c(C(C)Nc4ccc(Cl)nc4N4CCN(C(C)=O)CC4)cc(C)cc3c(=O)n(C)c21 (centres unmarked) [Compound 80, 9-(1-((2-(4-Acetylpiperazin-1-yl)-6-chloropyridin-3-yl)amino)ethyl)-3-ethyl-4,7-dimethyl-3,4-dihydro-5H-pyrazolo[3,4-c]isoquinolin-5-one] | < 1000 nM
Cc1cc(C(C)Nc2ccc(Cl)nc2-c2cnn(C)c2)c2c(c1)c(=O)n(C)c1c2cnn1C1CN(C)C1 (centres unmarked) [Compound 81, 9-(1-((6-Chloro-2-(1-methyl1H-pyrazol-4-yl)pyridin-3-yl)amino)ethyl)-4,7-dimethyl-3-(1-methylazetidin-3-yl)-3,4-dihydro-5H-pyrazolo[3,4-c]isoquinolin-5-one] | < 1000 nM
Cc1cc(C(C)Nc2ccc(Cl)nc2-c2ncn(C)n2)c2c(c1)c(=O)n(C)c1c2cnn1C1CN(C)C1 (centres unmarked) [Compound 82, 9-(1-((6-chloro-2-(1-methyl-1H-1,2,4-triazol-3-yl)pyridin-3-yl)amino)ethyl)-4,7-dimethyl-3-(1-methylazetidin-3-yl)-3,4-dihydro-5H-pyrazolo[3,4-c]isoquinolin-5-one] | < 1000 nM
Cc1cc(C(C)Nc2ccc(Cl)nc2-c2ncn(CCO)n2)c2c(c1)c(=O)n(C)c1c2cnn1C1CN(C)C1 (centres unmarked) [Compound 83, 9-(1-((6-chloro-2-(1-(2-hydroxyethyl)-1H-1,2,4-triazol-3-yl)pyridin-3-yl)amino)ethyl)-4,7-dimethyl-3-(1-methylazetidin-3-yl)-3,4-dihydro-5H-pyrazolo[3,4-c]isoquinolin-5-one] | < 1000 nM
Cc1cc(C(C)Nc2ccc(Cl)nc2-c2cn[nH]c2)c2c(c1)c(=O)n(C)c1c2cnn1C1CN(C)C1 (centres unmarked) [Compound 84, 9-(1-((6-chloro-2-(1H-pyrazol-4-yl)pyridin-3-yl)amino)ethyl)-4,7-dimethyl-3-(1-methylazetidin-3-yl)-3,4-dihydro-5H-pyrazolo[3,4-c]isoquinolin-5-one] | < 1000 nM
Cc1cc(C(C)Nc2ccc(Cl)nc2-c2ccc(=O)n(C)c2)c2c(c1)c(=O)n(C)c1c2cnn1C1CN(C)C1 (centres unmarked) [Compound 85, 9-(1-((6-chloro-1′-methyl-6′-oxo-1′,6′-dihydro-[2,3′-bipyridin]-3-yl)amino)ethyl)-4,7-dimethyl-3-(1-methylazetidin-3-yl)-3,4-dihydro-5H-pyrazolo[3,4-c]isoquinolin-5-one] | < 1000 nM
CNC(=O)c1ccc(-c2cc(Cl)ccc2NC(C)c2cc(C)cc3c(=O)n(C)c4c(cnn4C4CN(C)C4)c23)cn1 (centres unmarked) [Compound 86, 5-(5-chloro-2-((1-(4,7-dimethyl-3-(1-methylazetidin-3-yl)-5-oxo-4,5-dihydro-3H-pyrazolo[3,4-c]isoquinolin-9-yl)ethyl)amino)phenyl)-N-methylpicolinamide] | < 1000 nM
Cc1cc(C(C)Nc2ccc(Cl)nc2-c2ccc3c(c2)CN(C)C3=O)c2c(c1)c(=O)n(C)c1c2cnn1C1CN(C)C1 (centres unmarked) [Compound 87, 9-(1-((6-chloro-2-(2-methyl-1-oxoisoindolin-5-yl)pyridin-3-yl)amino)ethyl)-4,7-dimethyl-3-(1-methylazetidin-3-yl)-3,4-dihydro-5H-pyrazolo[3,4-c]isoquinolin-5-one] | < 1000 nM
Cc1cc(C(C)Nc2ccc(Cl)nc2-c2ccc3c(cnn3C)c2)c2c(c1)c(=O)n(C)c1c2cnn1C1CN(C)C1 (centres unmarked) [Compound 88, 9-(1-((6-chloro-2-(1-methyl-1H-indazol-5-yl)pyridin-3-yl)amino)ethyl)-4,7-dimethyl-3-(1-methylazetidin-3-yl)-3,4-dihydro-5H-pyrazolo[3,4-c]isoquinolin-5-one] | < 1000 nM
Cc1cc(C(C)Nc2ccc(Cl)nc2-c2ncn(C)n2)c2c(c1)c(=O)n(C)c1c2cnn1C1CN(CCO)C1 (centres unmarked) [Compound 89, 9-(1-((6-chloro-2-(1-methyl-1H-1,2,4-triazol-3-yl)pyridin-3-yl)amino)ethyl)-3-(1-(2-hydroxyethyl)azetidin-3-yl)-4,7-dimethyl-3,4-dihydro-5H-pyrazolo[3,4-c]isoquinolin-5-one] | < 1000 nM
Cc1cc(C(C)Nc2ccc(Cl)nc2-c2ncn(C)n2)c2c(c1)c(=O)n(C)c1c2cnn1C1CN(C2CC2)C1 (centres unmarked) [Compound 90, 9-(1-((6-chloro-2-(1-methyl-1H-1,2,4-triazol-3-yl)pyridin-3-yl)amino)ethyl)-3-(1-cyclopropylazetidin-3-yl)-4,7-dimethyl-3,4-dihydro-5H-pyrazolo[3,4-c]isoquinolin-5-one] | < 1000 nM
Cc1cc(C(C)Nc2ccc(Cl)nc2-c2ncn(C)n2)c2c(c1)c(=O)n(C)c1c2cnn1C1CN(C[C@H](C)O)C1 (stereo partly drawn) [Compound 91, 9-(1-((6-chloro-2-(1-methyl-1H-1,2,4-triazol-3-yl)pyridin-3-yl)amino)ethyl)-3-(1-((S)-2-hydroxypropyl)azetidin-3-yl)-4,7-dimethyl-3,4-dihydro-5H-pyrazolo[3,4-c]isoquinolin-5-one] | < 1000 nM
Cc1cc(C(C)Nc2ccc(Cl)nc2-c2ncn(C)n2)c2c(c1)c(=O)n(C)c1c2cnn1C1CN(C[C@@H](C)O)C1 (stereo partly drawn) [Compound 92, 9-(1-((6-chloro-2-(1-methyl-1H-1,2,4-triazol-3-yl)pyridin-3-yl)amino)ethyl)-3-(1-((R)-2-hydroxypropyl)azetidin-3-yl)-4,7-dimethyl-3,4-dihydro-5H-pyrazolo[3,4-c]isoquinolin-5-one] | < 1000 nM
Cc1cc(C(C)Nc2ccc(Cl)nc2-c2ncn(C)n2)c2c(c1)c(=O)n(C)c1c2cnn1C1CN(CC(C)(C)O)C1 (centres unmarked) [Compound 93, 9-(1-((6-chloro-2-(1-methyl-1H-1,2,4-triazol-3-yl)pyridin-3-yl)amino)ethyl)-3-(1-(2-hydroxy-2-methylpropyl)azetidin-3-yl)-4,7-dimethyl-3,4-dihydro-5H-pyrazolo[3,4-c]isoquinolin-5-one] | < 1000 nM
Cc1cc(C(C)Nc2ccc(Cl)nc2-c2ncn(C)n2)c2c(c1)c(=O)n(C)c1c2cnn1C1CN(CC(F)F)C1 (centres unmarked) [Compound 94, 9-(1-((6-chloro-2-(1-methyl-1H-1,2,4-triazol-3-yl)pyridin-3-yl)amino)ethyl)-3-(1-(2,2-difluoroethyl)azetidin-3-yl)-4,7-dimethyl-3,4-dihydro-5H-pyrazolo[3,4-c]isoquinolin-5-one] | < 1000 nM
Cc1cc(C(C)Nc2ccc(Cl)nc2-c2ncn(C)n2)c2c(c1)c(=O)n(C)c1c2cnn1C1CN(CC#N)C1 (centres unmarked) [Compound 95, 2-(3-(9-(1-((6-chloro-2-(1-methyl-1H-1,2,4-triazol-3-yl)pyridin-3-yl)amino)ethyl)-4,7-dimethyl-5-oxo-4,5-dihydro-3H-pyrazolo[3,4-c]isoquinolin-3-yl)azetidin-1-yl)acetonitrile] | < 1000 nM
Cc1cc(C(C)Nc2ccc(Cl)nc2-c2ncn(C)n2)c2c(c1)c(=O)n(C)c1c2cnn1C1CN(CCC#N)C1 (centres unmarked) [Compound 96, 3-(3-(9-(1-((6-chloro-2-(1-methyl-1H-1,2,4-triazol-3-yl)pyridin-3-yl)amino)ethyl)-4,7-dimethyl-5-oxo-4,5-dihydro-3H-pyrazolo[3,4-c]isoquinolin-3-yl)azetidin-1-yl)propanenitrile] | < 1000 nM
CC(=O)N1CC(n2ncc3c4c(C(C)Nc5ccc(Cl)nc5-c5ncn(C)n5)cc(C)cc4c(=O)n(C)c32)C1 (centres unmarked) [Compound 97, 3-(1-Acetylazetidin-3-yl)-9-(1-((6-chloro-2-(1-methyl-1H-1,2,4-triazol-3-yl)pyridin-3-yl)amino)ethyl)-4,7-dimethyl-3,4-dihydro-5H-pyrazolo[3,4-c]isoquinolin-5-one] | < 1000 nM
COC(=O)N1CC(n2ncc3c4c(C(C)Nc5ccc(Cl)nc5-c5ncn(C)n5)cc(C)cc4c(=O)n(C)c32)C1 (centres unmarked) [Compound 98, methyl 3-(9-(1-((6-chloro-2-(1-methyl-1H-1,2,4-triazol-3-yl)pyridin-3-yl)amino)ethyl)-4,7-dimethyl-5-oxo-4,5-dihydro-3H-pyrazolo[3,4-c]isoquinolin-3-yl)azetidine-1-carboxylate] | < 1000 nM
Cc1cc(C(C)Nc2ccc(Cl)nc2-c2ncn(C)n2)c2c(c1)c(=O)n(C)c1c2cnn1C1CN(S(C)(=O)=O)C1 (centres unmarked) [Compound 99, 9-(1-((6-chloro-2-(1-methyl-1H-1,2,4-triazol-3-yl)pyridin-3-yl)amino)ethyl)-4,7-dimethyl-3-(1-(methylsulfonyl)azetidin-3-yl)-3,4-dihydro-5H-pyrazolo[3,4-c]isoquinolin-5-one] | < 1000 nM
